US20020166149A1, “Sustained totipotent regenerable tissue culture of Arundo donax (Giant Reed) and totipotent tissue and plants produced therefrom” (priority 2001, published 2002)

Experiments:
A. donax explants = assay: Phosphinothricin selection of explants on solid selective medium; assay type: cell-based, Arundo donax L.; conditions: 10 mg/l
Method: Cross-sectional segment of immature A. donax inflorescence were prepared and cultivated as described in Example 2. The totipotent tissue was cocultivated with Agrobacterium tumefaciens carrying plasmid pMSF3022, which carried the bar gene for positive selection in plant cells. The gene confers resistance to the antibiotic/herbicide phosphinothricin.
Cocultivation was carried out in 6 ml. of liquid primary culture medium for four days in the dark at room temperature. Explants were then rinsed with liquid medium and placed on solid selective and non-selective control medium containing the antibiotic/herbicide phosphinothricine at 10 mg/l. All medium contained tidarcillin at 400 mg/l to eliminate residual A. tumefaciens. Controls include explants incubated without A. tumefaciens. […] This can be contrasted with control explants (which were not contacted with A. tumefaciens) that were killed by 10 mg/l of phosphinothricin (FIG. 3A). Also shown are control explants that have developed callus in the absence of phosphinothricin (FIG. 3B), and cocultivated explants that have developed callus in the absence of phosphinothricin (FIG. 3D).

A. donax plants (roots) = assay: Trichloroethene challenge of cloned plants in phytoreactor; assay type: in vivo, Arundo donax L.; conditions: 0.25 mM in hydroponic solution; after recovery period of 3 to 4 weeks
Method: Sustained titopotent cultures of A donax were grown as described in Example 2, and cloned plants derived from the titopotent tissues were established in a standard liquid hydroponic solution in plastic tubs (Shown in FIG. 4A). In one phytoreactor tub, trichloroethene (trichloroethylene) was added to a concentration of 0.25 mM. This was believed to be a high concentration of the organic material, because the allowable EPA concentration is 0.005 mg/l.

| SMILES | effect on explants cocultivated with Agrobacterium tumefaciens (bar gene) (A. donax explants; cocultivated explants) | effect on control explants (A. donax explants; control explants not contacted with A. tumefaciens) | state of roots after challenge (A. donax plants (roots)) |
| --- | --- | --- | --- |
| CP(=O)(O)CC[C@H](N)C(=O)O [phosphinothricin] | development of herbicide resistant embryogenic tissue | killed | – |
| ClC=C(Cl)Cl [trichloroethene] | – | – | fully recovered |
